Usually IC50 stands for the point on the concentration scale where inhibition reaches its midpoint. As a reminder, the AC50 is the concentration at which the activity in the assay is half-maximal.

Each structure is given as a SMILES string.

Results on nine compounds are retold here after patent US9181266B2, “2-piperidin-1-yl-acetamide compounds for use as tankyrase inhibitors” (NOVARTIS AG, priority 2011, dated 2015).

In experiment [1] the test system is Non-small lung cancer ABC-1 cells. The experiment in a line: Cellular proliferation assay (CellTiter-Glo). Format: cell-based. As to conditions: Homo sapiens, 72 h; ABC-1 cells, 3 days of compound treatment; read-out: ABC-1 IC50. Background: Cellular ATP, detected with luciferase, serves as a proxy for viable cell number.
Procedure: Cellular Proliferation Assay to Determine Compound Inhibition of Cancer Cell Growth
Viable cells were measured after 3 days of compound treatment using the CellTiter-Glo assay (Promega, G7570). Assay was performed following the manufacture protocol.
Experiment [2] concerns the target tankyrase 2 protein PARP domain, TNKS2P (Homo sapiens (Human), UniProt Q9H2K2). The experiment in a line: TNKS2 autoparsylation assay (LC/MS detection of nicotinamide). As to conditions: read-out: TNKS2 AP IC50, 20 nM enzyme, 250 μM β-NAD+, 60 min.
For experiment [3], the target named is human tankyrase 1 PARP catalytic domain, TNKS1P (Homo sapiens (Human), UniProt O95271). The experiment in a line: TNKS1 autoparsylation assay (LC/MS detection of nicotinamide). As to conditions: read-out: TNKS1 AP IC50, 20 nM enzyme, 250 μM β-NAD+, 60 min.
Procedure: Biochemical Assay to Determine Compound Inhibition of TNKS Enzyme Activity
The autoparsylation activity of the TNKS 1/2 or PARP1/2 enzymes was measured by the liquid chromatography-mass spectrometry (LC/MS) detection of nicotinamide as readout. Compound activity in inhibiting the TNKS and PARP autoparsylation was evaluated by IC50 measurements. […] For the background control wells, 10 μL of the 5× quenching solution per well was added prior to the addition of β-NAD^+. The % Inhibition was calculated as: (Control−Sample)/(Control−Background)*100.
Experiment [4] concerns Axin2 protein in SW480 cells. The experiment in a line: Cellular ELISA assay of Axin2 protein stabilization. The class given is cell-based. The conditions noted are these: Homo sapiens, 24 hrs, read-out: Axin AC50. On the procedure: Cellular ELISA Assay to Determine Compound Effect on Stabilizing the Axin2 Protein Compound activity in stabilizing the Axin2 protein was measured by Sandwich Enzyme-Linked Immuosorbent (ELISA) assay in the colorectal cell line SW480. 30,000 SW480 cells were seeded per well in 96-well plate and incubated overnight prior to compound treatment. […] Cells were then washed with 100 μL of cold Phosphate Buffer Saline (PBS), and lysed in 125 μl of cold 1× lysis buffer (Cell Signaling Technology, 9803) supplemented with Protease inhibitor (Roche, 11836170) and Phosphatase inhibitors (Sigma, P2850, P5726). For the ELISA assay, anti Axin-2 capture antibody (Strategic Diagnostics) antibody was diluted to a concentration of 1 μg/ml (1:1000) in Carbonate Coating buffer, pH 9.2 (Sigma, C3041-50CAP). […], of the diluted anti Axin-2 capture antibody per well was then used to coat the 96-well ELISA plate (Thermo Electron Corp., MicroLite 1 flat bottom plate #7571) overnight at 4° C. […] After blocking, plates were then washed three times with 300 μl/well of wash solution. 100 μL of prepared SW480 cell lysate was then added to each well and incubated at room temperature for 2 hours while shaking gently. After washing, 100 μL of Biotinylated anti-Axin2 antibody (CST, 2151) was added to each well and incubated room temperature for 2 hours. 100 μL of Streptavidin-HRP (R&D systems, DY998) diluted 1:200 in 1% BSA/PBS was then added in each well and incubate for 30 mins at R/T in the dark.
Background: An ELISA detects its analyte on a solid surface through an enzyme-linked reagent.

The subject of experiment [5] is Wnt ligand-induced signaling in HEK293 cells. The experiment in a line: Wnt-responsive Super-TOpFlash (STF) luciferase reporter gene assay. The class given is cell-based. The conditions noted are these: Homo sapiens, Wnt3A condition medium. The procedure:
Cellular Reporter Gene Assay to Determine Compound Inhibition of Wnt Signaling Activity
Compound activity in inhibiting Wnt ligand-induced signaling was measured using a Wnt-responsive Super-TOpFlash (STF) luciferase reporter gene assay in HEK293 cells. On day 1 of the assay, cells were plated at a density of 8000 cells per well of 384-well plate in 25 μl medium containing 5% fetal bovine serum (FBS). On the second day, […] condition medium (CM) produced from mouse L cells was added to the cells to induce Wnt signaling, followed by addition of 5 μL of compounds each well in 10-point serial dilution. On the third day, the luciferase activity was measured by the Bright-Glo™ Luciferase Assay System following manufacture's protocol (Promega, E2620). The Inhibition was calculated as: (Maximum Wnt-induced signaling−Sample)/(Maximum Wnt-induced signaling−Background)*100. “Maximum Wnt-induced signaling” is the STF signal level induced by 20% Wnt3A CM without compound; and “Background” is the STF signal level without the addition of Wnt3A CM or compound.

Sequence of tankyrase 2 protein PARP domain, TNKS2P (Q9H2K2 959-1164): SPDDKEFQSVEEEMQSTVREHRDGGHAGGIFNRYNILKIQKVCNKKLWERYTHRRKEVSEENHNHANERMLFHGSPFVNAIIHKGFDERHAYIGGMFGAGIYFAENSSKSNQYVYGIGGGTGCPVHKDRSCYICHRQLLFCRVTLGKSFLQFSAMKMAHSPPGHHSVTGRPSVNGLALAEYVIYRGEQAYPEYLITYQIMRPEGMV
Sequence of human tankyrase 1 PARP catalytic domain, TNKS1P (O95271 1112-1317): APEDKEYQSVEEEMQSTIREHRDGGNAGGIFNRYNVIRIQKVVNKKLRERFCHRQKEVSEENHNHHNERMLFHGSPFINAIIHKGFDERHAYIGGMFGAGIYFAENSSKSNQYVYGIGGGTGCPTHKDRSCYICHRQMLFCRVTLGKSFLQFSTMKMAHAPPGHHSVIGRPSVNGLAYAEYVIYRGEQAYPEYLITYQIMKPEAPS

In the case of `COc1ccc(C(=O)C2CCN(CC(=O)NCc3nc4c(c(=O)[nH]3)CCCCC4)CC2)cc1` [Example 6, 2-(4-(4-Methoxybenzoyl)piperidin-1-yl)-N-((4-oxo-4,5,6,7,8,9-hexahydro-3H-cyclohepta[d]pyrimidin-2-yl)methyl)acetamide], the IC50 worked out at 484 nM in experiment [1], 353 ± 8 nM in experiment [2], 575 ± 25 nM in experiment [3] and 56 ± 7 nM in experiment [5]. Also, in experiment [4], the AC50 stood at 293 ± 8 nM.

In the case of `COc1ccc(C(=O)C2CCN(CC(=O)N(Cc3nc4c(c(=O)[nH]3)CCCCC4)CC3CC3)CC2)cc1` [Example 7, N-(Cyclopropylmethyl)-2-(4-(4-methoxybenzoyl)piperidin-1-yl)-N-((4-oxo-4,5,6,7,8,9-hexahydro-3H-cyclohepta[d]pyrimidin-2-yl)methyl)acetamide], the half-inhibitory concentration (IC50) was determined as 691 nM in experiment [1], 371 ± 3 nM in experiment [2], 714 ± 5 nM in experiment [3] and 180 ± 70 nM in experiment [5]. The AC50 in experiment [4] came out at 680 ± 90 nM.

In the case of `O=C(c1ccc(F)cc1)C1CCN(CC(=O)N(Cc2nc3c(c(=O)[nH]2)COCC3)Cc2cccs2)CC1` [Example 13, 2-(4-(4-Fluorobenzoyl)piperidin-1-yl)-N-((4-oxo-4,5,7,8-tetrahydro-3H-pyrano[4,3-d]pyrimidin-2-yl)methyl)-N-(thiophen-2-ylmethyl)acetamide], the figures for the IC50 in experiment [1] and in experiment [3] were 40 nM and 15.4 ± 2.3 nM, respectively. In addition, the half-maximal activity concentration (AC50) in experiment [4] was found to be 26 ± 8 nM.

`O=C(c1ccc(F)cc1)C1CCN(CC(=O)N(Cc2ccccn2)Cc2nc3c(c(=O)[nH]2)COCC3)CC1` [Example 22, 2-(4-(4-Fluorobenzoyl)piperidin-1-yl)-N-((4-oxo-4,5,7,8-tetrahydro-3H-pyrano[4,3-d]pyrimidin-2-yl)methyl)-N-(pyridin-2-ylmethyl)acetamide]: the IC50 was 540 ± 280 nM in experiment [1] and 120 ± 2 nM in experiment [3]. Also, the AC50 in experiment [4] stood at 360 ± 190 nM.

Regarding `CC(C)CN(Cc1nc2c(c(=O)[nH]1)COCC2)C(=O)CN1CCC(C(=O)c2ccc(F)cc2)CC1` [Example 26, 2-(4-(4-Fluorobenzoyl)piperidin-1-yl)-N-isobutyl-N-((4-oxo-4,5,7,8-tetrahydro-3H-pyrano[4,3-d]pyrimidin-2-yl)methyl)acetamide], the IC50 in experiment [1] turned out to be 545 nM; in experiment [3], 70 ± 7 nM. In addition, the concentration at half-maximal activity (AC50) in experiment [4] was determined as 473 ± 36 nM.

With `O=C(c1ccc(F)cc1)C1CCN(CC(=O)N(Cc2ccccc2)Cc2nc3c(c(=O)[nH]2)COCC3)CC1` [Example 38, N-Benzyl-2-(4-(4-fluorobenzoyl)piperidin-1-yl)-N-((4-oxo-4,5,7,8-tetrahydro-3H-pyrano[4,3-d]pyrimidin-2-yl)methyl)acetamide], the figures for the IC50 in experiment [1] and in experiment [3] were 833 nM and 82 ± 1 nM, respectively. Besides, the half-maximal activity concentration (AC50) in experiment [4] amounted to 372 ± 86 nM.

In the case of `O=C(CN1CCC(c2nnc(-c3ccccc3)o2)CC1)NCc1nc2c(c(=O)[nH]1)COCC2` [Example 52, N-(4-Oxo-3,5,7,8-tetrahydro-4H-pyrano[4,3-d]pyrimidin-2-ylmethyl)-2-[4-(5-phenyl-[1,3,4]oxadiazol-2-yl)-piperidin-1-yl]-acetamide], the IC50 in experiment [1] was determined as 2800 nM; in experiment [2], 170 ± 30 nM; in experiment [3] it was 1190 ± 150 nM; in experiment [5], 155 ± 8 nM. Besides, the AC50 in experiment [4] came to 1090 ± 170 nM.

In the case of `COCCN(Cc1nc2c(c(=O)[nH]1)COCC2)C(=O)CN1CCC(c2nnc(-c3ccccc3)o2)CC1` [Example 53], the IC50 in experiment [1] was found to be 2160 nM; in experiment [2], 142 ± 19 nM; in experiment [3] it was 1130 ± 270 nM; in experiment [5] it was 430 ± 50 nM. Moreover, the AC50 in experiment [4] is 2100 ± 200 nM.

Turning to `O=C(CN1CCC(c2nnc(-c3ccc(F)cc3)o2)CC1)NCc1nc2c(c(=O)[nH]1)COCC2` [Example 55, 2-{4-[5-(4-Fluoro-phenyl)-[1,3,4]oxadiazol-2-yl]piperidin-1-yl}-N-(4-oxo-3,5,7,8-tetrahydro-4H-pyrano[4,3-d]pyrimidin-2-ylmethyl)-acetamide], the half-maximal inhibitory concentration (IC50) was found to be 83 nM in experiment [1], 78 ± 4 nM in experiment [2], 487 ± 16 nM in experiment [3] and 4.7 ± 1.8 nM in experiment [5]. Moreover, the AC50 in experiment [4] amounted to 25 ± 5 nM.
